Literature values, collected in PMC3853718 (Journal of Translational Medicine, 2013).
Like-named read-outs stand apart in the source and are kept apart here.

Legend:
[1] = system: patients; settings: cited from earlier work; for toxicity: 1-hour infusion on days 1, 8, 15 in a 4-week cycle
[2] = system: solid tumor patients; settings: cited from earlier work
[3] = system: nude mice; settings: once-daily administration for 7 days in nude mice; cited from earlier work
[4] = system: mouse xenograft model; settings: cited from earlier work
[5] = system: healthy volunteers; parameters: method as in PMID 17115157; settings: single dose of 160 mg; cited from earlier work

CC[C@H](CO)Nc1nc(NCc2ccccc2)c2ncn(C(C)C)c2n1 [seliciclib]
Dose-limiting toxicities ([1]; orally twice daily for 7 days of a 21-day schedule): hypokalemia, hyponatremia, elevated gamma-glutamyl transferase, hyperglycemia, and vasculitic rash | objective responses ([2]; patient with hepatocellular carcinoma among 56 patients): one PR | objective responses ([2]; separate trial): No responses

CC(=O)c1c(C)c2cnc(Nc3ccc(N4CCNCC4)cn3)nc2n(C2CCCC2)c1=O [PD0332991]
DLTs [1]: neutropenia | objective responses ([2]; patient with testicular cancer among 33 patients): one PR

O=C(NC1CCNCC1)c1[nH]ncc1NC(=O)c1c(Cl)cccc1Cl [AT7519]
objective responses ([2]; patient with metastatic NSCLC): one PR

CC(C)CC(=O)Nc1[nH]nc2c1CN(C(=O)C1CCN(C)CC1)C2(C)C [PHA793887]
toxicity ([1]; dose level of 66 mg/m^2, one patient): grade 4 hepatic failure | toxicity ([1]; third dose level of 44 mg/m^2, one patient): fatal hepatorenal failure | objective responses ([2]; first-in-human study in solid tumor patients): did not show any objective responses

CN1CC[C@H](c2c(O)cc(O)c3c(=O)cc(-c4ccccc4Cl)oc23)[C@H](O)C1 [flavopiridol]
dose-limiting toxicity ([1]; 72-hour continuous infusion trials): dose-limiting diarrhea | dose-limiting toxicity ([1]; daily 1-hour infusion schedule): dose-limiting neutropenia | maximum tolerated dose, defined as the dose associated with 20% weight loss [3]: < 10 mg/kg | objective responses ([2]; 55 patients, 1-hour daily infusion for 5 days, 3 days, or 1 day in a 21-day cycle): No objective responses | objective responses ([2]; 72-hour continuous infusion every 2 weeks, study of 76 patients, patient with renal cancer): one PR | objective responses ([2]; 72-hour continuous infusion every 2 weeks, trial of 38 patients, patient with gastric cancer): one CR | minimum effective dose, defined as >50% tumor growth inhibition [4]: 10 mg/kg

Cc1ncc(-c2ccnc(Nc3ccc(S(C)(=O)=O)cc3)n2)n1C(C)C [AZD5438]
tolerability ([1]; 40 mg four times a day, continuous daily dosing schedules, advanced solid tumors): not tolerated | objective responses ([2]; 3 phase 1 trials): No responses | DLT [5]: nausea and vomiting
